{"source": "patent US20260101897A1", "about": "“PLANT ENVIRONMENTAL STRESS TOLERANCE IMPROVEMENT AGENT AND ENVIRONMENTAL STRESS TOLERANCE IMPROVEMENT METHOD” (priority 2022, published 2026)", "format_in_all_cases": "in vivo", "key": {"[1]": {"tested_on": "Arabidopsis thaliana (Col-0)", "experiment": "Evaluation Example 1: tolerance to salt stress, plant mortality", "description": "L-(+)-ergothioneine (Examples 1 and 2 and Comparative Example 3) and glycine betaine (Comparative Examples 1 and 2 and Comparative Example 4) were prepared so as to have the concentrations shown in Table 1 below. EGT and GB were commercially available products, and pure water was used as a solvent.\nThree individuals of Arabidopsis thaliana (Col-0) were seeded per well in a 24-well cell culture plate. Mixed salts for Murashige and Skoog medium (Fujifilm Wako Pure Chemical Industries, Ltd.) to which 1 wt. % of sucrose and 0.1 wt. % of agar-agar powder were added was used as a liquid medium, and the liquid medium was placed in a 2 mL per well.\nThey were located in a growth chamber set at room temperature of 22° C., and the light period was 16 hours and the dark period was 8 hours. The light conditions were set such that the light intensity was 5000 lx in the central part under irradiation with the fluorescent lamp. On the fourth day after seeding, EGT or GB was added so as to give a predetermined concentration, and 24 hours later, an aqueous sodium chloride solution was added so as to give a final 100 mM concentration, thereby giving a salt stress.\nThe number of surviving plants was counted on the 10th day after seeding, and the plant mortality rate was evaluated as an index of physiological disorder. The mortality rate and the environmental stress suppressing rate were calculated according to the following formulas."}, "[2]": {"tested_on": "soybean plant", "experiment": "Evaluation Example 6: tolerance to drying stress, leaf mortality", "details": "for Leaf mortality rate / Environmental stress suppressing rate: drying stress Yes; for Leaf mortality rate: 7 days after stoppage of water", "description": "EGT and GB were commercially available products, and pure water was used as a solvent. In a 60 mm square plastic pot having a height of 66 mm, 150 ml of granular soil (Kumiai horticultural soil) was placed, and one individual soybean plant was seeded per pot. They were managed in a greenhouse set at room temperature of 25° C. EGT in an amount of 50 mL or GB in an amount of 50 mL was added on the 23rd day after seeding, and drying stress was applied by stopping water supply for 7 days after the addition of EGT or GB. Dead leaves were counted 7 days after the stoppage of water, and the leaf mortality rate was evaluated as an index of physiological disorder. The leaf mortality rate and the environmental stress suppressing rate were calculated according to the following formulas. [formula] [formula]"}, "[3]": {"tested_on": "radish (Akamaru Hatsuka)", "experiment": "Evaluation Example 7: tolerance to drying stress, leaf mortality", "details": "for Leaf mortality rate: test compound 0.5 mM (50 mL), water supply stopped 7 days twice; for Leaf mortality rate / Environmental stress suppressing rate: drying stress Yes; for Environmental stress suppressing rate: test compound 0.5 mM", "description": "EGT and GB were commercially available products, and pure water was used as a solvent. In a plastic pot having a diameter of 135 mm and a height of 110 mm, 1 kg of granular soil (Kumiai horticultural soil) was placed, and 5 individual radish (Akamaru Hatsuka) was seeded per pot. They were managed in a greenhouse set at room temperature of 25° C. EGT in an amount of 50 mL or GB in an amount of 50 mL was added on the 22nd day after seeding, and water supply was stopped for 7 days. After cultivation under water supply for 7 days, drying stress was applied by stopping water supply for 7 days again. The dead leaves of radish were counted after the drying stress was applied, and the leaf mortality rate was evaluated as an index of physiological disorder. The leaf mortality rate and the environmental stress suppressing rate were calculated according to the following formulas. [formula] [formula]"}, "[4]": {"tested_on": "turf (Manila grass)", "experiment": "Evaluation Example 8: tolerance to drying stress, leaf mortality", "details": "for Leaf mortality rate: test compound 0.1 mM (12.5 mL), water supply stopped 7 days twice; for Leaf mortality rate / Environmental stress suppressing rate: drying stress Yes; for Environmental stress suppressing rate: test compound 0.1 mM", "description": "EGT and GB were commercially available products, and pure water was used as a solvent.\nIn a plastic pot having a diameter of 135 mm and a height of 110 mm, 1 L of a raising seedling culture soil (manufactured by Kanetaki Co., Ltd.) was placed, and 100 mm square of turf (Manila grass) was planted per pot.\nThey were managed in a greenhouse set at room temperature of 25° C. 12.5 mL of EGT or 12.5 mL of GB was added about one month after planting, and water supply was stopped for 7 days thereafter. After cultivation under water supply for 7 days, drying stress was applied by stopping water supply for 7 days again.\nThe dead leaves of turf to which the drying stress was applied were counted, and the leaf mortality rate was evaluated as an index of physiological disorder. The leaf mortality rate and the environmental stress suppressing rate were calculated according to the following formulas."}, "[5]": {"tested_on": "broccoli", "experiment": "Evaluation Example 13: tolerance to freezing stress, plant mortality", "details": "for Environmental stress suppressing rate: freezing stress Yes", "description": "EGT (Example 17, Comparative Example 55) or GB (Comparative Examples 54 and 56) was prepared so as to have the concentration shown in Table 13 below. EGT and GB were commercially available products, and pure water was used as a solvent.\n(§1) 5 mL of pure water was added to 9-cm petri dishes on which filter paper was placed, and 10 broccoli seeds were seeded per petri dish. They were located in a growth chamber set at room temperature of 22° C., and the light period was 16 hours and the dark period was 8 hours. The light conditions were set such that the light intensity was 5000 lx in the central part under irradiation with the fluorescent lamp.\nOn the 6th day after seeding, pure water in the petri dish was removed, and then, 5 mL of EGT or 5 mL of GB was added to the petri dish, and freezing stress was applied by, 14 days after the addition, a first exposure to an environment of −20° C. for 20 minutes, and, 1 day after the first exposure, a second exposure to an environment of −20° C. for 20 minutes.\nThe surviving plants were counted 24 hours after the freezing stress was applied, and the mortality rate of the plants was evaluated as an index of physiological disorder. The mortality rate and the environmental stress suppressing rate were calculated according to the following formulas."}, "[6]": {"tested_on": "strawberry (wild strawberry)", "experiment": "Evaluation Example 14: tolerance to freezing stress, plant mortality", "details": "for Environmental stress suppressing rate: freezing stress Yes", "description": "EGT (Example 18, Comparative Example 60) or GB (Comparative Examples 59 and 61) was prepared so as to have the concentration shown in Table 14 below. EGT and GB were commercially available products, and pure water was used as a solvent.\nas §1, with “10” for “10 broccoli”, “seeds of strawberry (wild strawberry)” for “seeds”, “per” for “per petri”\nOn the 15th day after seeding, pure water in the petri dish was removed, and then 5 mL of EGT or 5 mL of GB was added, and 9 days after that, freezing stress was applied by exposure to an environment of −20° C. for 20 minutes.\nThe surviving plants were counted 3 days after the freezing stress was applied, and the mortality rate of the plants was evaluated as an index of physiological disorder. The mortality rate and the environmental stress suppressing rate were calculated according to the following formulas."}, "[7]": {"details": "test compound 0.1 mM, salt stress Yes (100 mM sodium chloride)"}, "[8]": {"details": "test compound 0.1 mM, salt stress Yes (100 mM sodium chloride), 10th day after seeding"}, "[9]": {"details": "test compound 1 mM, salt stress No"}, "[10]": {"details": "test compound 1 mM, salt stress Yes (100 mM sodium chloride)"}, "[11]": {"details": "test compound 1 mM, salt stress Yes (100 mM sodium chloride), 10th day after seeding"}, "[12]": {"details": "test compound 0.1 mM (5 mL), freezing stress Yes (−20° C. for 20 minutes, twice), 24 hours after stress"}, "[13]": {"details": "test compound 0.1 mM, freezing stress No"}, "[14]": {"details": "test compound 0.1 mM (5 mL), freezing stress Yes (−20° C. for 20 minutes), 3 days after stress"}}}
{"smiles": "C[N+](C)(C)CC(=O)[O-]", "note": "[GB, glycine betaine, reference compound]", "values": [{"measurement": "death due to salt stress, result in words", "setting": "[1]; GB treatment 1 mM and 0.1 mM, salt stress", "result": "not suppressed"}, {"measurement": "Environmental stress suppressing rate", "setting": "[1]; [7]", "result": 0, "unit": "%"}, {"measurement": "Mortality rate", "setting": "[1]; [8]", "result": 79, "unit": "%"}, {"measurement": "Mortality rate", "setting": "[1]; [9]", "result": 0, "unit": "%"}, {"measurement": "Environmental stress suppressing rate", "setting": "[1]; [10]", "result": 0, "unit": "%"}, {"measurement": "Mortality rate", "setting": "[1]; [11]", "result": 75, "unit": "%"}, {"measurement": "mortality rate due to drying stress, result in words", "setting": "[2]; GB 1 mM and 0.1 mM, drying stress", "result": "not suppressed"}, {"measurement": "Leaf mortality rate", "setting": "[2]; test compound 0.1 mM (50 mL)", "result": 71, "unit": "%"}, {"measurement": "Environmental stress suppressing rate", "setting": "[2]; test compound 0.1 mM", "result": 0, "unit": "%"}, {"measurement": "Leaf mortality rate", "setting": "[2]; test compound 1 mM (50 mL)", "result": 62, "unit": "%"}, {"measurement": "Environmental stress suppressing rate", "setting": "[2]; test compound 1 mM", "result": 0, "unit": "%"}, {"measurement": "mortality rate due to drying stress, result in words", "setting": "[3]; 0.5 mM, drying stress", "result": "not suppressed"}, {"measurement": "Leaf mortality rate", "setting": "[3]", "result": 73, "unit": "%"}, {"measurement": "Environmental stress suppressing rate", "setting": "[3]", "result": 0, "unit": "%"}, {"measurement": "mortality rate due to drying stress, result in words", "setting": "[4]; 0.1 mM, drying stress", "result": "not suppressed"}, {"measurement": "Leaf mortality rate", "setting": "[4]", "result": 100, "unit": "%"}, {"measurement": "Environmental stress suppressing rate", "setting": "[4]", "result": 0, "unit": "%"}, {"measurement": "mortality rate due to freezing stress, result in words", "setting": "[5]; 0.1 mM, freezing stress", "result": "not suppressed"}, {"measurement": "Mortality rate", "setting": "[5]; [12]", "result": 100, "unit": "%"}, {"measurement": "Mortality rate", "setting": "[5]; [13]", "result": 0, "unit": "%"}, {"measurement": "Environmental stress suppressing rate", "setting": "[5]; test compound 0.1 mM", "result": 0, "unit": "%"}, {"measurement": "mortality rate due to freezing stress, result in words", "setting": "[6]; 0.1 mM, freezing stress", "result": "not suppressed"}, {"measurement": "Mortality rate", "setting": "[6]; [14]", "result": 63, "unit": "%"}, {"measurement": "Mortality rate", "setting": "[6]; [13]", "result": 0, "unit": "%"}, {"measurement": "Environmental stress suppressing rate", "setting": "[6]; test compound 0.1 mM", "result": 0, "unit": "%"}]}
{"smiles": "C[N+](C)(C)[C@@H](Cc1c[nH]c(=S)[nH]1)C(=O)[O-]", "note": "[EGT, L-(+)-ergothioneine]", "values": [{"measurement": "Environmental stress suppressing rate", "setting": "[1]; [7]", "result": 48, "unit": "%"}, {"measurement": "Mortality rate", "setting": "[1]; [8]", "result": 39, "unit": "%"}, {"measurement": "Mortality rate", "setting": "[1]; [9]", "result": 0, "unit": "%"}, {"measurement": "Environmental stress suppressing rate", "setting": "[1]; [10]", "result": 81, "unit": "%"}, {"measurement": "Mortality rate", "setting": "[1]; [11]", "result": 14, "unit": "%"}, {"measurement": "Leaf mortality rate", "setting": "[2]; test compound 0.1 mM (50 mL)", "result": 55, "unit": "%"}, {"measurement": "Environmental stress suppressing rate", "setting": "[2]; test compound 0.1 mM", "result": 11, "unit": "%"}, {"measurement": "Leaf mortality rate", "setting": "[2]; test compound 1 mM (50 mL)", "result": 38, "unit": "%"}, {"measurement": "Environmental stress suppressing rate", "setting": "[2]; test compound 1 mM", "result": 39, "unit": "%"}, {"measurement": "Leaf mortality rate", "setting": "[3]", "result": 17, "unit": "%"}, {"measurement": "Environmental stress suppressing rate", "setting": "[3]", "result": 71, "unit": "%"}, {"measurement": "Leaf mortality rate", "setting": "[4]", "result": 35, "unit": "%"}, {"measurement": "Environmental stress suppressing rate", "setting": "[4]", "result": 65, "unit": "%"}, {"measurement": "Mortality rate", "setting": "[5]; [12]", "result": 38, "unit": "%"}, {"measurement": "Mortality rate", "setting": "[5]; [13]", "result": 0, "unit": "%"}, {"measurement": "Environmental stress suppressing rate", "setting": "[5]; test compound 0.1 mM", "result": 56, "unit": "%"}, {"measurement": "Mortality rate", "setting": "[6]; [14]", "result": 29, "unit": "%"}, {"measurement": "Mortality rate", "setting": "[6]; [13]", "result": 0, "unit": "%"}, {"measurement": "Environmental stress suppressing rate", "setting": "[6]; test compound 0.1 mM", "result": 54, "unit": "%"}]}
